Test results as given in PubChem BioAssay (NCI).
“And” between values parts separate entries of the source, which are not always exact repeats. Identical values can stand only once.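 Test compounds were applied to cells in 96-well plates for 48 hours at 5 doses. At the TGI there is no net growth.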

Columns and labels:
Test in all cases: inhibition of tumour cell growth, NCI panel, 48 h
[1] = tested on: KM12 colon
[2] = tested on: SW-620 colon
[3] = tested on: UACC-62 melanoma
[4] = tested on: UACC-257 melanoma
[5] = tested on: 786-0 renal
[6] = tested on: HCT-116 colon
[7] = tested on: MDA-MB-435
[8] = tested on: HCC-2998 colon
[9] = tested on: LOX IMVI melanoma
[10] = tested on: SK-MEL-2 melanoma
[11] = tested on: SF-539 CNS

Structure (SMILES) | TGI [1] [µM] | TGI [2] [µM] | TGI [3] [µM] | TGI [4] [µM] | TGI [5] | TGI [6] [µM] | TGI [7] [µM] | TGI [8] [µM] | TGI [9] [µM] | TGI [10] [µM] | TGI [11]
CC1(C)CC[C@]2(C(=O)O)[C@H](O)C[C@]3(C)C(=CC[C@@H]4[C@@]5(C)CC[C@H](OC6OC(C(=O)O)C(O)C(O)C6O)C(C)(C)[C@@H]5CC[C@]43C)[C@@H]2C1 (stereo not given in full) | > 100 | > 100 | 61.9 | > 100 | > 100 µM | > 100 | > 100 | > 100 | > 100 | > 100 | –
CC1(C)C2CCC(N)(C2)C1O (stereo not given) | > 100 | > 100 | > 100 | > 100 | > 100 µM | > 100 | > 100 | > 100 | > 100 | > 100 | –
O=C1NC2(C=Cc3c(ccc4ccccc34)O2)Oc2ccccc21 (stereo not given) | 41.1 | > 100 | > 100 | – | > 100 µM | 40.8 | – | – | 39.9 | 56.5 | 50.2 µM
CN(C)c1ccc(/C=c2/c3cc([N+](=O)[O-])ccc3n3c2cc(-c2ccccc2)[n+]3C)cc1 | 2.59 | 2.75 | 1.87 | – | 10.3 µM | 5.84 | 1.84 | 7.55 | – | 1.68 | 3.6 µM
C#CCOC(=O)C(N)CCSC (stereo not given) | > 100 | > 100 | > 100 | > 100 | > 100 µM | > 100 | > 100 | – | > 100 | > 100 | –
C[N+](C)(C)CC1CCCC/C1=N\O (stereo not given) | > 100 | > 100 | > 100 | > 100 | > 100 µM | > 100 | – | > 100 | > 100 | > 100 | > 100 µM
COc1ccc(C2C(Cl)C(=O)N2NC(=O)Cc2ccccc2)cc1OC (stereo not given) | > 100 | > 100 | > 100 | > 100 | > 100 µM | > 100 | – | > 100 | > 100 | > 100 | –
COC(=O)C1C2CC3C(OC(=O)C31)C2OC(=O)[C@](OC)(c1ccccc1)C(F)(F)F (stereo not given in full) | > 100 | > 100 | – | > 100 | > 100 µM | > 100 | – | > 100 | > 100 | > 100 | > 100 µM
C[N+](C)(N)c1nc(N)c(C#N)c(C#N)c1C#N | – | > 10 | > 10 | – | – | > 10 | > 10 | > 10 | > 10 | > 10 | > 10 µM
Cc1ncc([N+](=O)[O-])n1CCNC(=O)CCCCCn1ccnc1[N+](=O)[O-] | > 100 | > 100 | > 100 | > 100 | > 100 µM | > 100 | > 100 | > 100 | – | > 100 | > 100 µM
O=C1C[C@H](c2ccc(O)c(O)c2)Oc2cc(O)cc(O)c21 | > 100 | > 100 | > 100 | > 100 | > 100 µM | > 100 | – | > 100 | > 100 | > 100 | > 100 µM
CCCCNC(=S)Nc1nc(C(=O)NNC(=O)c2ccccc2)cs1 | 36.9 | 30.2 | 41.4 | 37 | 35.2 µM | 27.1 | 47.8 | 27.5 | 21.7 | 35.9 | –
OC(c1ccccc1)(c1cccnc1)C(O)(c1ccccc1)c1cccnc1 (stereo not given) | > 100 | > 100 | > 100 | > 100 | > 100 µM | > 100 | > 100 | – | – | > 100 | > 100 µM
CN(C)CCn1nc(N)c2nc3cc(C(F)(F)F)ccc3nc21 | > 100 | > 100 | > 100 | > 100 | > 100 µM | > 100 | > 100 | > 100 | > 100 | > 100 | –
OC1c2ccccc2C(O)C2OC12 (stereo not given) | > 100 | > 100 | > 100 | > 100 | > 100 µM | > 100 | > 100 | – | > 100 | > 100 | > 100 µM
NCCCC[C@H](N)C(=O)Nc1ccc(-c2nc3ccccc3s2)cc1Cl | 7.81 | 23.6 | 28.5 | 32.4 | 8.11 µM | 1.93 | 9.58 | > 38.4 | – | 32.7 | –
Cc1ccc2c(=O)c(-c3n[nH]c(=S)s3)c[nH]c2n1 | > 100 | > 100 | > 100 | > 100 | > 100 µM | > 100 | > 100 | – | > 100 | > 100 | –
COc1cc2c(c(OC)c1OC)-c1ccc(SC)cc1C(=O)CC2 | – | > 100 | > 100 | – | > 100 µM | – | > 100 | 39.6 | > 100 | > 100 | < 0.01 µM
N=C(c1cccs1)C1(N2CCCCC2)CCCCC1 | 34.6 | 34.7 | 31 | 31.8 | > 100 µM | > 100 | 37.8 | 27.1 | 47.9 | 31.3 | –
COc1ccc(N2C(=O)C3CC4=CC(=O)C[C@H]4[C@H]32)cc1 (stereo not given in full) | > 100 | > 100 | > 100 | > 100 | > 100 µM | > 100 | > 100 | > 100 | > 100 | > 100 | –
COC[C@@H](Cc1ccc(OC)c(OC)c1)[C@@H](COC)Cc1ccc(OC)c(OC)c1 | > 100 | > 100 | > 100 | > 100 | – | > 100 | – | > 100 | > 100 | > 100 | > 100 µM
CCC1(O)CC(OC2CC(N(C)C)C(OC3CC(O)C(OC4CCC(=O)C(C)O4)C(C)O3)C(C)O2)c2c(O)c3c(c(O)c2C1C(=O)OC)C(=O)c1cccc(O)c1C3=O (stereo not given) | 1.28 | 0.0394 | 0.0235 | 0.0915 | 0.218 µM and 0.449 µM | – | 0.101 | 0.04 | – | 0.0247 | 0.127 µM and 0.0653 µM
